{"source": "ChEMBL document CHEMBL2073935", "about": "“Cloning and functional characterization of a rat renal organic cation transporter isoform (rOCT1A)” (J Biol Chem, 1997)", "molecules": {"B1": {"name": "Solute carrier family 22 member 1 (Rattus norvegicus) (protein)", "chain": "MPTVDDVLEQVGEFGWFQKQAFLLLCLISASLAPIYVGIVFLGFTPGHYCQNPGVAELSQRCGWSQAEELNYTVPGLGPSDEASFLSQCMRYEVDWNQSTLDCVDPLSSLVANRSQLPLGPCEHGWVYDTPGSSIVTEFNLVCGDAWKVDLFQSCVNLGFFLGSLVVGYIADRFGRKLCLLVTTLVTSVSGVLTAVAPDYTSMLLFRLLQGMVSKGSWVSGYTLITEFVGSGYRRTTAILYQMAFTVGLVGLAGVAYAIPDWRWLQLAVSLPTFLFLLYYWFVPESPRWLLSQKRTTRAVRIMEQIAQKNGKVPPADLKMLCLEEDASEKRSPSFADLFRTPNLRKHTVILMYLWFSCAVLYQGLIMHVGATGANLYLDFFYSSLVEFPAAFIILVTIDRIGRIYPIAASNLVTGAACLLMIFIPHELHWLNVTLACLGRMGATIVLQMVCLVNAELYPTFIRNLGMMVCSALCDLGGIFTPFMVFRLMEVWQALPLILFGVLGLTAGAMTLLLPETKGVALPETIEEAENLGRRKSKAKENTIYLQVQTGKSSST"}}, "key": {"[1]": {"target": "T1, Solute carrier family 22 member 1 (Rattus norvegicus, UniProt Q63089)", "T1 sequence (Q63089 whole entry)": "B1 chain", "experiment": "TP_TRANSPORTER: inhibition of TEA uptake (TEA: 500 uM, PAH: 5000 uM) in OCT1A expressing Xenopus laevis oocytes", "format": "functional, cell-based", "settings": "oocyte"}, "[2]": {"target": "T1, Solute carrier family 22 member 1", "experiment": "TP_TRANSPORTER: inhibition of TEA uptake (TEA: 500 uM, Guanidine: 5000 uM) in OCT1A expressing Xenopus laevis oocytes", "format": "functional, cell-based", "settings": "oocyte"}, "[3]": {"target": "T1, Solute carrier family 22 member 1", "experiment": "TP_TRANSPORTER: inhibition of TEA uptake (basolateral to cell) (TEA: 500 uM, NMN: 5000 uM) in OCT1A expressing Xenopus laevis oocytes", "format": "functional, cell-based", "settings": "oocyte"}, "[4]": {"target": "T1, Solute carrier family 22 member 1", "experiment": "TP_TRANSPORTER: inhibition of TEA uptake (TEA: 500 uM, Procainamide: 5000 uM) in OCT1A expressing Xenopus laevis oocytes", "format": "functional, cell-based", "settings": "oocyte"}, "[5]": {"substrate": "CC[N+](CC)(CC)CC", "experiment": "cells, lysate or membranes named"}}, "data": [{"molecule": "Nc1ccc(C(=O)NCC(=O)O)cc1", "note": "[AMINOHIPPURIC ACID]", "values": [{"measurement": "Activity", "setting": "[1]", "result": "inhibitor [+]"}]}, {"molecule": "N=C(N)N", "note": "[GUANIDINE]", "values": [{"measurement": "Activity", "setting": "[2]", "result": "inhibitor [+]"}]}, {"molecule": "CNC(=O)c1cccnc1", "note": "[NICOTINYL METHYLAMIDE]", "values": [{"measurement": "Activity", "setting": "[3]", "result": "inhibitor [+]"}]}, {"molecule": "CCN(CC)CCNC(=O)c1ccc(N)cc1", "note": "[PROCAINAMIDE]", "values": [{"measurement": "Activity", "setting": "[4]", "result": "inhibitor [+]"}]}, {"molecule": "B1", "values": [{"measurement": "Km", "setting": "[5]", "result": 42, "unit": "µM"}]}]}
